Reference: paper PMC8327158, “PEGylated AdipoRon derivatives improve glucose and lipid metabolism under insulinopenic and high-fat diet conditions” (Journal of Lipid Research, 2021)

Columns and labels:
[1] = Plasma pharmacokinetics after IP dosing; assay type: in vivo, C57BL/6J mice; conditions: IP 20 mg/kg; for Cmax: male, mouse, plasma, 8-week-old C57BL/6J mice, mean ± SEM
Experimental: (§1) Two groups of male C57BL/6J mice (21 mice/group) at 8 weeks of age were dosed IP with 20 mg/kg AdipoRon or AdipoRonPEG5, 0.2 ml/mouse formulated as 10% DMSO/10% Cremophor/20% PEG400/60% PBS. Whole blood was harvested at seven time points post IP dosing, 10 min, 30 min, 90 min, 180 min, 360 min, 960 min, and 1,440 min. Three mice were euthanized at each time point. Plasma was processed from whole blood by centrifugation of the ACD-treated blood for 10′ at 10,000 rpm in a standard centrifuge. Additionally, the liver was harvested. The tissues were weighed and snap frozen in liquid nitrogen.
To quantify plasma drug concentration and PK, we prepared standards by adding 98 μl blank plasma (BioIVT) to an eppendorf. These were spiked with 2 μl of initial standard. For QCs, we added 98.8 μl blank plasma to Eppendorf, spiked with 1.2 μl of initial standard. For samples, we mixed 100 μl plasma with 200 μl of methanol containing 0.15% formic acid and 75 ng/ml IS (IS final conc. = 50 ng/ml). The samples were vortexed 15 s, incubated at room temp for 10′, and spun 2× 13,200 rpm in a standard microcentrifuge. The supernatant was then analyzed by LC-MS/MS.

[2] = Liver drug concentration and bioavailability after IP dosing; assay type: in vivo, C57BL/6J mice; conditions: IP 20 mg/kg; for liver Cmax: 8-week-old C57BL/6J mice, mean ± SEM
Experimental: as §1
To measure liver drug concentration and bioavailability, we prepared standards by adding 98 μl blank liver homogenate to an Eppendorf, spiked with 2 μl of initial standard. For QCs, we added 98.8 μl blank liver homogenate to an Eppendorf, spiked with 1.2 μl of initial standard. For samples, we mixed 100 μl liver homogenate with 200 μl of methanol containing 0.15% formic acid and 75 ng/ml IS (IS final conc. = 50 ng/ml). The samples were vortexed 15 s, incubated at room temp for 10′, and spun 2× 13,200 rpm in a standard microcentrifuge. The supernatant was then analyzed by LC-MS/MS.

INS-1 β-cells = experiment: Palmitate-induced cell death protection assay (PI fluorescence plate reader); assay type: cell-based, rat; conditions: PA 0.25 mM, 24 h
Experimental: A 7.1 mM palmitic acid stock solution was prepared in 95% ethanol by incubating at 37°C. In parallel, 2% fatty-acid-free BSA was solubilized in sterile nanopure water at 37°C. The palmitic acid/BSA complex solution was then prepared by incubating the components in a molar ratio of 5:1 at 37°C in a shaking water bath for 1 h and was used directly for INS-1 stimulation experiments. Control cultures were carried out in the presence of BSA/ethanol in RPMI without palmitic acid.
Quantification of β-cell death by PI staining was carried out on a fluorescence plate reader. Following a 2 h preincubation under serum-free conditions, INS-1 cells (60k cells/well, 96-well plate (COSTAR ref # 3603)) were kept for 24 h in Phenol Red-free FBS-free RPMI 0.5% BSA as a control or containing 0.25 mM PA-BSA in the presence or absence of treatment. Cells were stained for 10 min at 4°C with propidium iodide (PI) at 1 μg/ml (added to the existing media to avoid loss of dead cells). PI fluorescence intensity was measured with a plate reader (PHERAstar, BMG Labtech).

INS-1 cells = experiment: qPCR gene expression in INS-1 cells; assay type: cell-based, rat; conditions: for genes related to insulin secretion and β-cell differentiation transcription factors: absence of palmitate
[3] = system: liver transcriptome of HFD-fed mice; experiment: RNA-seq of liver of HFD-fed mice; assay type: in vivo, mouse
Experimental: RNA-sequence was performed by Novogene (Sacramento, CA) by utilizing isolated RNA. After the QC procedures, mRNA from eukaryotic organisms is enriched from total RNA using oligo(dT) beads. For prokaryotic samples, rRNA is removed using a specialized kit that leaves the mRNA. The mRNA from either eukaryotic or prokaryotic sources was then fragmented randomly in fragmentation buffer, followed by cDNA synthesis using random hexamers and reverse transcriptase. After first-strand synthesis, a custom second-strand synthesis buffer (Illumina) is added, with dNTPs, RNase H, and Escherichia coli polymerase I to generate the second strand by nick-translation, and AMPure XP beads are used to purify the cDNA. The final cDNA library is ready after a round of purification, terminal repair, A-tailing, ligation of sequencing adapters, size selection, and PCR enrichment. Library concentration was first quantified using a Qubit 2.0 fluorometer (Life Technologies) and then diluted to […] before checking insert size on an Agilent 2100 and quantifying to greater accuracy by quantitative PCR (Q-PCR) (library activity >2 nM). Libraries are fed into Novaseq6000 machines according to activity and expected data volume.
Differential expression of genes between AdipoRon-treated group and AdipoRonPEG5-treated group was analyzed by use of genes having an fpkm of ≥0 in all samples. Genes whose expression was “between 1.1 and 0.9 fold change” or “more than 1.1 fold up- “or “less than 0.9 fold down-“ regulated in liver RNA from control (n = 3) versus AdipoRon (n = 3) versus AdipoRonPEG5 group constituted “nc”, “up,” and “down” signatures. Gene expression was analyzed using Gene Ontology analysis (GO Consortium) and GenePattern software (Broad Institute).

HFD-fed wild-type mice = experiment: Food intake, body weight, ITT and OGTT in mice on HFD for 7 months; assay type: in vivo, mouse; conditions: HFD 7 months, 5 mg/kg twice a day for 5 days
Experimental: For oral glucose tolerance test (OGTT), mice were fasted for 4–6 h and subjected to an oral gavage of dextrose (2 mg/g body weight). Tail blood was collected at 0, 15, 30, 60, and 120 min and prepared for serum and assayed for glucose and insulin. For insulin tolerance test (ITT), insulin (0.75 U/kg Humulin R; Eli Lilly, Indianapolis, IN) was administered under fed condition. Serum glucose level was measured at 0, 15, 30, 60, and 90 min time point. Triglyceride tolerance test (TGTT) was initiated by oral gavage of 20% Intralipid (10 μl/g BDW, l141-100 ml, Sigma), and serum was collected at 0, 1, 1.5, 3, and 6 h for triglyceride assay. Glucose, insulin, and triacylglyceride levels were measured using an oxidase-peroxidase assay (Sigma P7119), insulin ELISA (Crystal Chem, Elk Grove village, IL, #15596018), and Infinity Triglycerides Reagent (Thermo Fisher Scientific TR22421).
Six-week-old wild-type male mice were fed HFD for 4 weeks or 7 months In total, 5 mg/Kg of PBS, Adiporon, AdipoRonPEG5, AdipoRonPEG6HTL were injected twice a day for 5 days. After 5 days of treatment, systemic test is performed, and serum (Before and after treatment), subcutaneous, epididymal, liver, heart samples were harvested for qPCR and sphingolipid analysis.

SMILES	Cmax [1] [ng/mL]	liver Cmax [2] [ng/mL]	protection from PA-induced cell death (INS-1 β-cells; 20 μM)	genes related to insulin secretion and β-cell differentiation transcription factors (INS-1 cells; 20 μM)	AdipoR1 / AdipoR2 signaling pathway genes ([3]; HFD 4 weeks, 5 mg/kg 5 days)	upregulation of genes of the family of ceramidases ([3]; HFD 4 weeks, 5 mg/kg 5 days)	lipogenesis genes Acly and Scd1 ([3]; top 30 genes)	increase in maximal plasma concentration compared with AdipoRon [1]	higher bioavailability in the liver than AdipoRon [2]	reduction of PA-induced apoptosis (INS-1 β-cells; 20 μM) [%]	protective activity against PA-induced cell death (INS-1 β-cells; dose range)	expression of Ins1, Nkx6-1 and Kcnj11 (INS-1 cells; 20 μM, presence of palmitate)	expression of Hif-1α (INS-1 cells; PA-stressed INS-1 cells)	blood glucose levels in ITT (HFD-fed wild-type mice)	blood glucose levels in OGTT (HFD-fed wild-type mice)	blood insulin levels in OGTT (HFD-fed wild-type mice)	food intake or body weight (HFD-fed wild-type mice)	gluconeogenesis-related genes in the liver ([3]; HFD 4 weeks, 5 mg/kg 5 days)	triglyceride- and glucose-metabolism-related genes incl. scd1, pck1 ([3]; HFD 4 weeks, 5 mg/kg 5 days)	glutathione S-transferases Gstm1 and Gstm2 ([3]; top 30 genes)
O=C(COc1ccc(C(=O)c2ccccc2)cc1)NC1CCN(Cc2ccccc2)CC1 [AdipoRon]	2170 ± 196	3169.30 ± 1437.09	further modest increase in protection	suppress	sided with AdipoR2 signaling	to a lesser extent	highly upregulated													
O=C(COc1ccc(C(=O)c2ccccc2)cc1)NC1CCN(Cc2ccc(OCCOCCOCCOCCOCCO)cc2)CC1 [AdipoRonPEG5]	6510 ± 685	25509.73 ± 1436.44		suppress	preference toward amplifying AdipoR1 signaling pathway	highest		threefold	eightfold	~50	potent antiapoptotic activity	significantly increased	elevates	significant reduction	not altered	reduction of blood insulin levels	no significant impact	inhibitory effect	downregulated	prominent increases
